Test results: patent US12667546B2, “Methods for manipulating cell state transitions in cancer” (AGENCY FOR SCIENCE, TECHNOLOGY AND RESEARCH, priority 2018, dated 2026)
“Also recorded” adds a separate entry of the source. Read-outs that look alike come from different tables or passages of the source.

What was measured:
[1] = tested on: NAMEC8; assay: Cell morphology of treated NAMEC8; format: cell-based, human; details: bexarotene, TTNPB, SGC-CBP30, UNC0642, A-485 1 μM, LLY-283, GSK591 20 nM, C-IN-1 500 nM
Procedure: Human mammary epithelial cell lines (HMLE) were generated as described and immortalized using retroviral vectors to express the catalytic subunit of the human telomerase enzyme, hTERT and the SV-40 Large T antigen. NAMEC8 was generated as described. Briefly, HMLE cells were grown to 50% confluency, followed by differential trypsinization for 1 minute with 0.05% trypsin. Detached cells were carefully collected and re-plated at approximately 200 cells per well of a 24-well plate. Upon expansion, wells were screened for populations that were morphologically mesenchymal and can be stably propagated. Clonal and non-clonal NAMEC cell lines were generated. NAMEC8 is a non-clonal line derived from at least 200 mesenchymal cells. HMLE cells and NAMECs were maintained in MEGM (Lonza).

[2] = tested on: NAMEC8; assay: Expression of EMT and lineage markers (qRT-PCR, immunoblot, immunofluorescence) in NAMEC8; format: cell-based, human; details: transcript and protein
Procedure: Cells were rinsed twice in ice-cold PBS. Total RNA was extracted using Trizol (Invitrogen) and column-purified with RNeasy kits (Qiagen). cDNA synthesis was performed with 500 ng of total RNA at 37° C. for 2 h using the SuperScript III First-Strand Synthesis System (Thermo Fisher Scientific), and subsequently diluted 5-fold. mRNA levels were measured with gene-specific primers listed below using the ABI Prism 7900HT Sequence Detection System 2.2 (Applied Biosystems). Results were normalized to GAPDH and analyzed using SDS 2.2 software.
Cells were harvested and scraped from culture dishes in ice-cold PBS. They were then centrifuged at 12000 rpm for 5 min at 4° C. The pellets were then snap frozen in liquid nitrogen or lysed in ice-cold RIPA lysis buffer (Thermo Scientific) and left on ice for 30 min. Subsequently, the lysates were centrifuged at 12000 rpm for 10 min at 4° C. The supernatants were then aspirated and placed in fresh tubes. Protein concentrations were determined using Coomaisse Blue. 50-80 μg total protein was mixed with NuPAGE™ LDS sample buffer and heated at 70° C. for 10 min. Samples were loaded into NuPAGE™ 4-12% Bis-Tris gels (precast polyacrylamide gel; Invitrogen™). Gel electrophoresis was done at 200V for 1.5 h and then blotted onto nitrocellulose membranes (Trans-Blot Turbo™ transfer pack; Bio-Rad). The membranes were blocked with 5% skimmed milk in Tris-buffered saline (TBS; 1st BASE) with 0.1% Tween-20 (Santa Cruz), and then incubated with primary antibodies overnight at 4° C. Thereafter, the membranes were incubated with a horseradish peroxidase (HRP)-conjugated secondary antibody at room temperature for one hour. Finally, the immunoreactive proteins were visualized by using an enhanced chemiluminescent (ECL) reagent (Thermo Scientific, 34075) with the Chemidoc™ Imager (Bio-Rad, 17001401).
Cell cultures were fixed in 4% paraformaldehyde and permeabilized with 0.25% Triton X-100, followed by blocking with 1% bovine serum albumin in PBST. Cells were incubated in specific primary antibodies, followed by the appropriate secondary antibodies conjugated with Alexa Fluor-488 or -594 (Molecular Probes). Cell nuclei were then stained with DAPI and then viewed and imaged with an Axio Observer D1 epifluorescence microscope with a built-in AxioCamMR3 camera (Zeiss), using the optimal filters and 100-200× magnifications.

[3] = tested on: NAMEC8; assay: Flow cytometry of CD44 and CD24, NAMEC8; format: cell-based, human
Procedure: Cells were harvested as per FACS and resuspended in 100 μl of solution containing CD24-PE and CD44-APC (BD-Biosciences) antibodies diluted in 2% FBS in PBS (1:40 dilution). Cells were stained for 45 min with vortexing every 10 min to ensure even staining. After antibody incubation, cells were washed once and resuspended in 300 μl 2% FBS in PBS. Cells were then filtered through a 40 μm strainer and analyzed on BD LSR Fortessa X-20 Cell Analyzer.

[4] = tested on: NAMEC8-Ras; assay: Tumor formation of pre-treated NAMEC8-Ras injected subcutaneously; format: in vivo, NSG mice; details: pre-treated cells, 11 weeks
[5] = tested on: metastatic TNBC; details: cited from earlier work
[6] = tested on: NAMEC8; assay: Lipid droplet staining (Bodipy); format: cell-based, human; details: NAMEC8, with bexarotene
Procedure: Intracellular lipid droplets were visualized with fluorescent Bodipy dye. Cells in culture were fixed in 4% paraformaldehyde for 15 min at room temperature, rinsed twice with PBS and permeabilized with 0.2% TritonX-100 in PBS for 10 min and incubated with Bodipy diluted in PBS (final concentration 1 μg/ml) for overnight at 4° C. Cells were washed with PBS and stained with DAPI. Fluorescence images were obtained with an Axio Observer D1 epifluorescence microscope with a built-in AxioCamMR3 camera (Zeiss), using the optimal filters and 100-200× magnifications.

| Compound | cell morphology [1] | expression of EMT and basal/luminal markers [2] | CD44/CD24 surface expression [3] | tumor formation / tumor size [4] | response rate ([5]; Keynote 012, phase 1, monotherapy) | response rate ([5]; Keynote 086, phase 2, monotherapy) | accumulation of lipid droplets during retinoid treatment [6] |
| --- | --- | --- | --- | --- | --- | --- | --- |
| CNC(=O)Nc1ccc2c(c1)CC[C@@]21OC(=O)N(CC(=O)N(Cc2ccc(F)cc2)[C@@H](C)C(F)(F)F)C1=O [A-485] | tight clusters of epithelial islands were observed; also recorded: Epithelial-like morphology was observed | upregulation of E-cadherin protein expression, with slight decrease in the mesenchymal markers | obvious increase in CD44 expression; also recorded: higher CD44 expression | Tumor formation was still observed |  |  |  |
| Pembrolizumab: immune checkpoint monotherapy in Keynote 012 and Keynote 086 studies |  |  |  |  | 18% | 5% |  |
| COc1cc(C)c(C(=O)Oc2cc(C)c(C(=O)Oc3cc(C)c(C(=O)NC(C)C(=O)O)c(O)c3)c(O)c2)c(OC)c1 (stereo not shown) [AmidepsineA] |  | the gain in epithelial-luminal gene markers such as E-cadherin, KRT8, and MUC1 were suppressed |  |  |  |  | clear reductions in the accumulation of lipid droplets during retinoid treatment |
| CCCCCCCCCS(=O)(=O)Nc1ccccc1C(=O)O [FSG67] |  | the gain in epithelial-luminal gene markers such as E-cadherin, KRT8, and MUC1 were suppressed |  |  |  |  | clear reductions in the accumulation of lipid droplets during retinoid treatment |
